In US11065253B2, “Arylquinazolines” (Merck Patent GmbH, priority 2013, dated 2021):
pIC50: −log10 of the molar value. Like-named read-outs stand apart in the source and are kept apart here.

System: phospho-serine 2056 DNA-PK in HCT116 cells
Assay: DNA-PK phosphorylation at serine 2056 (cellular), ELISA in bleomycin-treated HCT116 cells
Type: cell-based
Details: bleomycin-treated HCT116 cells, read-out: IC50 pDNA-PK
Summary of the method: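 HCT116 cells grown overnight were co-treated with 10 μM bleomycin and test compound for 6 h at 37 °C. Phospho-DNA-PK was quantified by chemiluminescent ELISA and normalised to total DNA-PKcs signal, with DMSO control as blank.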

[1] = Homo sapiens, HCT-116, phospho-serine 2056 DNA-PK

| Structure (SMILES) | pIC50 (phospho-serine 2056 DNA-PK) | pIC50 [1] |
| --- | --- | --- |
| COc1ccc(C(O)c2cc(-c3ncnc4cc(N5CCOCC5)cc(F)c34)c(F)cc2Cl)nn1 (centres unmarked) [Example 271, [2-Chloro-4-fluoro-5-(5-fluoro-7-morpholin-4-yl-quinazolin-4-yl)-phenyl]-(6-methoxy-pyridazin-3-yl)-methanol (Ena 1)] | > 6.30 | – |
| Cc1nccnc1C(O)c1ccc(F)c(-c2ncnc3cc(N4CCOCC4)c(F)cc23)c1 (centres unmarked) [Example 283, [4-Fluoro-3-(6-fluoro-7-morpholin-4-yl-quinazolin-4-yl)-phenyl]-(3-methyl-pyrazin-2-yl)-methanol] | – | 4.52 to 5.00 |
| NC(=O)C(c1ccc(F)c(-c2ncnc3cc(N4CCOCC4)ccc23)c1)c1nncc2sccc12 (centres unmarked) [Example 285, 2-[4-Fluoro-3-(7-morpholin-4-yl-quinazolin-4-yl)-phenyl]-2-thieno-[2,3-d}pyridazin-4-yl-acetamide] | – | 4.52 to 5.00 |
| NC(=O)C(c1cc(-c2ncnc3cc(N4CCOCC4)ccc23)c(F)cc1Cl)c1ncccc1Cl (centres unmarked) [Example 289, 2-[2-Chloro-4-fluoro-5-(7-morpholin-4-yl-quinazolin-4-yl)-phenyl]-2-(3-chloro-pyridin-2-yl)-acetamide] | – | 5.30 to 6.30 |
| NC(=O)C(c1ccc(F)c(-c2ncnc3cc(N4CCOCC4)ccc23)c1)c1nnc(Cl)c2ccsc12 (centres unmarked) [Example 290, 2-(4-Chlorothieno-[2,3-d}pyridazin-7-yl)-2-[4-fluoro-3-(7-morpholin-4-yl-quinazolin-4-yl)-phenyl]acetamide] | – | 5.00 to 5.30 |
| NC(=O)C(c1ccc(F)c(-c2ncnc3cc(N4CCOCC4)ccc23)c1)c1nnc(Cl)c2sccc12 (centres unmarked) [Example 291, 2-(7-Chlorothieno-[2,3-d}pyridazin-4-yl)-2-[4-fluoro-3-(7-morpholin-4-yl-quinazolin-4-yl)-phenyl]acetamide] | – | 5.00 to 5.30 |
| NC(=O)c1cncc(C(C(N)=O)c2ccc(F)c(-c3ncnc4cc(N5CCOCC5)ccc34)c2)n1 (centres unmarked) [Example 292, 6-{Carbamoyl-[4-fluoro-3-(7-morpholin-4-yl-quinazolin-4-yl)-phenyl]methyl}-pyrazine-2-carboxylic acid amide] | – | 4.52 to 5.00 |
| NC(=O)C(c1cccnc1)c1cc(-c2ncnc3cc(N4CCOCC4)ccc23)c(F)cc1Cl (centres unmarked) [Example 293, 2-[2-Chloro-4-fluoro-5-(7-morpholin-4-yl-quinazolin-4-yl)-phenyl]-2-pyridin-3-ylacetamide] | – | 5.00 to 5.30 |
| NC(=O)C(c1cccnc1)c1cc(-c2ncnc3cc(N4CCOCC4)ccc23)c(F)cc1F (centres unmarked) [Example 294, 2-[2,4-Difluoro-5-(7-morpholin-4-yl-quinazolin-4-yl)-phenyl]-2-pyridin-3-ylacetamide] | – | 4.52 to 5.00 |
| NC(=O)C(c1cccnc1)c1ccc(F)c(-c2ncnc3cc(N4CCOCC4)ccc23)c1 (centres unmarked) [Example 295, 2-[4-Fluoro-3-(7-morpholin-4-yl-quinazolin-4-yl)-phenyl]-2-pyridin-3-ylacetamide] | – | 4.52 to 5.00 |
| Cc1cncc(C(O)c2ccc(F)c(-c3ncnc4cc(N5CCOCC5)ccc34)c2)n1 (centres unmarked) [Example 296, [4-Fluoro-3-(7-morpholin-4-yl-quinazolin-4-yl)-phenyl]-(6-methyl-pyrazin-2-yl)-methanol] | – | 5.00 to 5.30 |
| NC(=O)C(c1cncc(Cl)c1)c1ccc(F)c(-c2ncnc3cc(N4CCOCC4)ccc23)c1 (centres unmarked) [Example 297, 2-(5-Chloro-pyridin-3-yl)-2-[4-fluoro-3-(7-morpholin-4-yl-quinazolin-4-yl)-phenyl]acetamide] | – | 4.52 to 5.00 |
| NC(=O)C(c1ccc(F)c(-c2ncnc3cc(N4CCOCC4)ccc23)c1)c1ncnn2cccc12 (centres unmarked) [Example 299, 2-[4-Fluoro-3-(7-morpholin-4-yl-quinazolin-4-yl)-phenyl]-2-pyrrolo-[2,1-f][1,2,4]triazin-4-ylacetamide] | – | 4.52 to 5.00 |
| NC(=O)C(c1cccnn1)c1cc(-c2ncnc3cc(N4CCOCC4)ccc23)c(F)cc1Cl (centres unmarked) [Example 300, 2-[2-Chloro-4-fluoro-5-(7-morpholin-4-yl-quinazolin-4-yl)-phenyl]-2-pyridazin-3-ylacetamide] | – | 4.52 to 5.00 |
| Cc1cnc(C(C(N)=O)c2cc(-c3ncnc4cc(N5CCOCC5)ccc34)c(F)cc2Cl)c(C)n1 (centres unmarked) [Example 301, 2-[2-Chloro-4-fluoro-5-(7-morpholin-4-yl-quinazolin-4-yl)-phenyl]-2-(3,5-dimethyl-pyrazin-2-yl)acetamide] | – | 5.30 to 6.30 |
| Nc1cncc(C(O)c2ccc(F)c(-c3ncnc4cc(N5CCOCC5)ccc34)c2)n1 (centres unmarked) [Example 302, (6-Amino-pyrazin-2-yl)-[4-fluoro-3-(7-morpholin-4-yl-quinazolin-4-yl)-phenyl]methanol] | – | 5.00 to 5.30 |
| Cc1nccnc1C(C(N)=O)c1cc(-c2ncnc3cc(N4CCOCC4)ccc23)ccc1Cl (centres unmarked) [Example 303, 2-[2-Chloro-5-(7-morpholin-4-yl-quinazolin-4-yl)-phenyl]-2-(3-methyl-pyrazin-2-yl)-acetamide] | – | 5.00 to 5.30 |
| COc1nccnc1C(C(N)=O)c1cc(-c2ncnc3cc(N4CCOCC4)ccc23)ccc1Cl (centres unmarked) [Example 304, 2-[2-Chloro-5-(7-morpholin-4-yl-quinazolin-4-yl)-phenyl]-2-(3-methoxy-pyrazin-2-yl)acetamide] | – | 5.00 to 5.30 |

| Structure (SMILES) | pIC50 (phospho-serine 2056 DNA-PK) | pIC50 [1] |
| --- | --- | --- |
| COc1nccnc1C(C(N)=O)c1ccc(F)c(-c2ncnc3cc(N4CCOCC4)ccc23)c1 (centres unmarked) [Example 305, 2-[4-Fluoro-3-(7-morpholin-4-yl-quinazolin-4-yl)-phenyl]-2-(3-methoxy-pyrazin-2-yl)acetamide] | – | 5.00 to 5.30 |
| COc1ccc(C(C(N)=O)c2cc(-c3ncnc4cc(N5CCOCC5)ccc34)c(F)cc2F)nn1 (centres unmarked) [Example 306, 2-[2,4-Difluoro-5-(7-morpholin-4-yl-quinazolin-4-yl)-phenyl]-2-(6-methoxy-pyridazin-3-yl)acetamide] | – | 4.52 to 5.00 |
| COc1nnccc1C(C(N)=O)c1cc(-c2ncnc3cc(N4CCOCC4)ccc23)c(F)cc1Cl (centres unmarked) [Example 307, 2-[2-Chloro-4-fluoro-5-(7-morpholin-4-yl-quinazolin-4-yl)-phenyl]-2-(3-methoxypyridazin-4-yl)acetamide] | – | 5.00 to 5.30 |
| COc1ccc(C(C(N)=O)c2ccc(F)c(-c3ncnc4cc(N5CCOCC5)ccc34)c2)nn1 (centres unmarked) [Example 308, 2-[4-Fluoro-3-(7-morpholin-4-yl-quinazolin-4-yl)-phenyl]-2-(6-methoxypyridazin-3-yl)acetamide] | – | 4.52 to 5.00 |
| NC(=O)C(c1cc(-c2ncnc3cc(N4CCOCC4)ccc23)c(F)cc1Cl)c1ncnn2cccc12 (centres unmarked) [Example 309, 2-[2-Chloro-4-fluoro-5-(7-morpholin-4-yl-quinazolin-4-yl)-phenyl]-2-[3H-pyrrolo[2,1-f][1,2,4]-triazin-(4E)-ylidene]-acetamide] | – | 4.52 to 5.00 |
| COc1ccc(C(C(N)=O)c2cc(-c3ncnc4cc(N5CCOCC5)ccc34)ccc2Cl)nn1 (centres unmarked) [Example 310, 2-[2-Chloro-5-(7-morpholin-4-yl-quinazolin-4-yl)-phenyl]-2-(6-methoxy-pyridazin-3-yl)acetamide] | – | 4.52 to 5.00 |
| Cn1nc(C(C(N)=O)c2cc(-c3ncnc4cc(N5CCOCC5)ccc34)c(F)cc2Cl)ccc1=O (centres unmarked) [Example 311, 2-[2-Chloro-4-fluoro-5-(7-morpholin-4-yl-quinazolin-4-yl)-phenyl]-2-(1-methyl-6-oxo-1,6-dihydro-pyridazin-3-yl)-acetamide] | – | 4.52 to 5.00 |
| Cn1c(C(C(N)=O)c2cc(-c3ncnc4cc(N5CCOCC5)ccc34)c(F)cc2Cl)cccc1=O (centres unmarked) [Example 312, 2-[2-Chloro-4-fluoro-5-(7-morpholin-4-yl-quinazolin-4-yl)-phenyl]-2-(1-methyl-6-oxo-1,6-dihydro-pyridin-2-yl)-acetamide] | – | 4.52 to 5.00 |
| NC(=O)C(c1ccc(F)c(-c2ncnc3cc(N4CCOCC4)ccc23)c1)c1ncccc1Cl (centres unmarked) [Example 313, 2-(3-Chloro-pyridin-2-yl)-2-[4-fluoro-3-(7-morpholin-4-yl-quinazolin-4-yl)-phenyl]acetamide] | – | 5.00 to 5.30 |
| Cc1ncc(C(O)c2ccc(F)c(-c3ncnc4cc(N5CCOCC5)ccc34)c2)nc1C (centres unmarked) [Example 314, (5,6-Dimethyl-pyrazin-2-yl)-[4-fluoro-3-(7-morpholin-4-yl-quinazolin-4-yl)-phenyl]methanol] | – | 5.30 to 6.30 |
| NC(=O)C(c1cc(-c2ncnc3cc(N4CCOCC4)ccc23)ccc1Cl)c1nccnc1Cl (centres unmarked) [Example 315, 2-[2-Chloro-5-(7-morpholin-4-yl-quinazolin-4-yl)-phenyl]-2-(3-chloro-pyrazin-2-yl)-acetamide] | – | 4.52 to 5.00 |
| COc1nccnc1C(C(N)=O)c1cc(-c2ncnc3cc(N4CCOCC4)ccc23)ccc1F (centres unmarked) [Example 316, 2-[2-Fluoro-5-(7-morpholin-4-yl-quinazolin-4-yl)-phenyl]-2-(3-methoxy-pyrazin-2-yl)acetamide] | – | 5.00 to 5.30 |
| Cn1nc(C(C(N)=O)c2ccc(F)c(-c3ncnc4cc(N5CCOCC5)ccc34)c2)ccc1=O (centres unmarked) [Example 317, 2-[4-Fluoro-3-(7-morpholin-4-yl-quinazolin-4-yl)-phenyl]-2-(1-methyl-6-oxo-1,6-dihydro-pyridazin-3-yl)-acetamide] | – | 4.52 to 5.00 |
| Cc1cnc(C(C(N)=O)c2ccc(F)c(-c3ncnc4cc(N5CCOCC5)ccc34)c2)c(C)n1 (centres unmarked) [Example 318, 2-(3,5-Dimethyl-pyrazin-2-yl)-2-[4-fluoro-3-(7-morpholin-4-yl-quinazolin-4-yl)-phenyl]acetamide] | – | 4.52 to 5.00 |
| COc1nccnc1C(C(N)=O)c1cc(-c2ncnc3cc(N4CCOCC4)ccc23)c(F)cc1F (centres unmarked) [Example 319, 2-[2,4-Difluoro-5-(7-morpholin-4-ylquinazolin-4-yl)phenyl]-2-(3-methoxypyrazin-2-yl)-acetamide] | – | 5.00 to 5.30 |
| COc1nccnc1C(C(N)=O)c1cc(-c2ncnc3cc(N4CCOCC4)ccc23)c(F)cc1Cl (centres unmarked) [Example 320, 2-[2-Chloro-4-fluoro-5-(7-morpholin-4-yl-quinazolin-4-yl)-phenyl]-2-(3-methoxy-pyrazin-2-yl)acetamide] | – | 5.30 to 6.30 |
| NC(=O)C(c1ccc(F)c(-c2ncnc3cc(N4CCOCC4)ccc23)c1)c1c(F)cncc1F (centres unmarked) [Example 321, 2-(3,5-Difluoro-pyridin-4-yl)-2-[4-fluoro-3-(7-morpholin-4-yl-quinazolin-4-yl)-phenyl]acetamide] | – | 5.30 to 6.30 |
